Assay results from patent publication US11058688B2, “Imidazopiperazine inhibitors of transcription activating proteins” (Board of Regents, The University of Texas System, priority 2018, dated 2021).

Tests used:
[1] = target: GST-CBP(1081-1197) bromodomain (Homo sapiens (Human), UniProt Q92793); experiment: CBP AlphaScreen Assay; conditions: binding to biotin-H4(1-21) Ac-K5/8/12/16 peptide
Experimental: (§1) Specific binding of the CBP or BRD4 bromodomain to the acetylated peptide derived from the H4 histone substrate (tetra acetylated H4(1-21) Ac-K5/8/12/16) was measured in absence or presence of inhibitors.
(§2) The standard dose response curves were fitted by Genedata Screener software using the variable-slope model: Signal=Signalnegative control+(SignalDMSO control−Signalnegative control)/(1+(IC50/Dose)^Hill slope).
(§3) Only Signal and Dose in the equation were treated as known values.

[2] = target: BRD4(49-170) bromodomain (Homo sapiens (Human), UniProt O60885); experiment: BRD4 AlphaScreen Assay; conditions: binding to biotin-H4(1-21) Ac-K5/8/12/16 peptide
Experimental: as §1, §2, §3

GST-CBP(1081-1197) bromodomain, sequence (Q92793 1081-1197): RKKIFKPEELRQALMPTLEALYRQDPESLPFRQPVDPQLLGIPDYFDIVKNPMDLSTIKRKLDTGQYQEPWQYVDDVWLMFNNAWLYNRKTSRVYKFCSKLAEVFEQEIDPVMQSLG

| Structure (SMILES) | IC50 [1] [nM] | IC50 [2] [nM] |
| --- | --- | --- |
| COC(=O)N1CCn2c(C3CCOC3)nc(-c3ccc4c(c3)c(-c3cnn(C)c3)nn4C)c2C1 (centres unmarked) [Example 5, Methyl 1-(1-methyl-3-(1-methyl-1H-pyrazol-4-yl)-1H-indazol-5-yl)-3-(tetrahydrofuran-3-yl)-5,6-dihydroimidazo[1,5-a]pyrazine-7(8H)-carboxylate] |  | 13900 |
| CC(=O)N1CCn2cnc(-c3ccc4c(c3)c(-c3cnn(C)c3)nn4C)c2C1 [Example 10, 1-(1-(1-Methyl-3-(1-methyl-1H-pyrazol-4-yl)-1H-indazol-5-yl)-5,6-dihydroimidazo[1,5-a]pyrazin-7(8H)-yl)ethanone] | 197 | > 10000 |
| CNC(=O)N1CCn2cnc(-c3ccc4c(c3)c(-c3cnn(C)c3)nn4C)c2C1 [Example 11, N-Methyl-1-(1-methyl-3-(1-methyl-1H-pyrazol-4-yl)-1H-indazol-5-yl)-5,6-dihydroimidazo[1,5-a]pyrazine-7(8H)-carboxamide] | 26 | > 10000 |
| CC(=O)N1CCn2c(C3CN(C(C)=O)C3)nc(-c3ccc4c(c3)c(-c3cnn(C)c3)nn4C)c2C1 [Example 12, 1-(3-(7-Acetyl-1-(1-methyl-3-(1-methyl-1H-pyrazol-4-yl)-1H-indazol-5-yl)-5,6,7,8-tetrahydroimidazo[1,5-a]pyrazin-3-yl)azetidin-1-yl)ethan-1-one] |  | > 10000 |
| CC(=O)N1CCn2c(C3CN(C)C3)nc(-c3ccc4c(c3)c(-c3cnn(C)c3)nn4C)c2C1 [Example 13, 1-(1-(1-Methyl-3-(1-methyl-1H-pyrazol-4-yl)-1H-indazol-5-yl)-3-(1-methylazetidin-3-yl)-5,6-dihydroimidazo[1,5-a]pyrazin-7(8H)-yl)ethanone] | 1380 | > 10000 |

Continued, values first:

| IC50 [1] [nM] | IC50 [2] [nM] | Structure (SMILES) |
| --- | --- | --- |
| 47 | > 10000 | CC(=O)N1CCn2c(C3CC3)nc(-c3ccc4c(c3)c(-c3cnn(C)c3)nn4C)c2C1 [Example 1, 1-(3-cyclopropyl-1-(1-methyl-3-(1-methyl-1H-pyrazol-4-yl)-1H-indazol-5-yl)-5,6-dihydroimidazo[1,5-a]pyrazin-7(8H)-yl)ethan-1-one] |
| 3 | 8900 | CNC(=O)N1CCn2c(C3CC3)nc(-c3ccnc4cc(-c5cnn(C)c5)c(OC(F)(F)F)cc34)c2C1 [Example 2, 3-cyclopropyl-N-methyl-1-(7-(1-methyl-1H-pyrazol-4-yl)-6-(trifluoromethoxy)quinolin-4-yl)-5,6-dihydroimidazo[1,5-a]pyrazine-7(8H)-carboxamide] |
| 5 | > 10000 | CNC(=O)N1CCn2c(C3CC3)nc(N3CCCc4cc(-c5cnn(C)c5)c(C(F)F)cc43)c2C1 [Example 3, 3-cyclopropyl-1-(7-(difluoromethyl)-6-(1-methyl-1H-pyrazol-4-yl)-3,4-dihydroquinolin-1(2H)-yl)-N-methyl-5,6-dihydroimidazo[1,5-a]pyrazine-7(8H)-carboxamide] |
| 24 | 8210 | CNC(=O)N1CCn2c(C3CCOC3)nc(-c3ccc4c(c3)c(-c3cnn(C)c3)nn4C)c2C1 (centres unmarked) [Example 6, N-Methyl-1-(1-methyl-3-(1-methyl-1H-pyrazol-4-yl)-1H-indazol-5-yl)-3-(tetrahydrofuran-3-yl)-5,6-dihydroimidazo[1,5-a]pyrazine-7(8H)-carboxamide] |
| 115 | > 10000 | CNC(=O)N1CCn2c(C3CN(C)C3)nc(-c3ccc4c(c3)c(-c3cnn(C)c3)nn4C)c2C1 [Example 8, N-Methyl-1-(1-methyl-3-(1-methyl-1H-pyrazol-4-yl)-1H-indazol-5-yl)-3-(1-methylazetidin-3-yl)-5,6-dihydroimidazo[1,5-a]pyrazine-7(8H)-carboxamide] |
| 63 | > 10000 | CNC(=O)N1CCn2c(C3CN(C(C)=O)C3)nc(-c3ccc4c(c3)c(-c3cnn(C)c3)nn4C)c2C1 [Example 9, 3-(1-Acetylazetidin-3-yl)-N-methyl-1-(1-methyl-3-(1-methyl-1H-pyrazol-4-yl)-1H-indazol-5-yl)-5,6-dihydroimidazo[1,5-a]pyrazine-7(8H)-carboxamide] |
